System: p65 nuclear translocation in J774A.1 and RAW264.7 cells
Assay: p65 nuclear translocation by immunofluorescence staining
Type: cell-based, murine
Details: 10 μM for 1 h, then LPS; LPS alone 80%, basal 40%
Experimental: To monitor p65 translocation, J774A.1 cells were treated with compounds for 1 h, followed by LPS (100 ng/ml) treatment for 30 min. The cells were fixed with 4% paraformaldehyde (Sigma; #158127) in PBS (w/v) for 30 min at room temperature. After washing with 1× PBS (Welgene; ML008-02) three times, the fixed cells were permeabilized with PBS containing 0.1% Triton X-100 for 10 min. The cells were washed with 1× PBS three times and then blocked with 4% bovine serum albumin (MP Biomedicals; #0216006980) in PBS (w/v) for 1 h. The cells were incubated with mouse anti-p65 antibody (Santa Cruz; sc-8008, 1:200 diluted in 1% BSA–PBS) at 4 °C overnight and washed with PBS three times. FITC-labeled goat anti-mouse IgG antibody (Abcam; ab6785, 1:200 diluted in 1% BSA–PBS) was added to the sample and incubated for 1 h at room temperature. The remaining antibodies were finally washed three times with PBS. Nuclei were stained with Hoechst 33342 (Thermo; #62249). The cellular p65 proteins were imaged by fluorescence microscopy (GE Healthcare; Delta Vision) and quantified by the line profiling method.
During activation of the NF-κB signaling pathway, IκB is phosphorylated and degraded by proteasomes. The released p65 from IκB is translocated to the nucleus, inducing the transcription of target genes for inflammatory responses. Therefore, we monitored the translocation of p65 upon SB26019 treatment in J774A.1 and RAW264.7 murine macrophage cells stained with fluorescently labeled antibodies. […]

With COc1ccc2c(c1O)OC(C)(C)C=C2c1cccc2c1oc1ccccc12 [Compound 8] the “p65 nuclear translocation in the presence of LPS” value was less than 60%.

From article PMC9743128, “Phenotype-based screening rediscovered benzopyran-embedded microtubule inhibitors as anti-neuroinflammatory agents by modulating the tubulin–p65 interaction” (Experimental & Molecular Medicine, 2022)
